Where “and” joins values, the source holds several entries; their conditions need not be identical. Equal values may be shown once.
Legend:
Format in all cases: in vivo, mouse
[1] = tested on: HCC1569 xenografts; assay: Cell line-derived xenograft, tumour growth; details: Gem 20mg/kg QWx4 IP
Method: (§1) HCC1569, OVCAR3 and SUM149PT cells were implanted at 5 × 10^6 cells per mouse into the right flanks of female CB17-SCID, SCID-beige and NOD-SCID mice respectively (5–7 weeks old; Charles River), in 1:1 Matrigel:medium (Matrigel Corning, cat. no. CB35248).
(§2) Gemcitabine was administered once weekly intraperitoneally in saline. Animals were monitored for tumour volume, clinical signs and body weight three times per week. Tumour volume was measured using a digital calliper and calculated using the formula 0.52 × L × W^2, where L is length and W is width. Response to treatment was evaluated for tumour growth inhibition (% TGI). […] TV is tumour volume and subscripts indicate treatment group and time of sampling. According to NIACC and IACUC approved animal protocols, mice were euthanized as soon as their tumour volume exceeded 2,000 mm^3. Change in body weight (BW) was calculated using the formula: %BW change = (BWlast − BWday0/BWday0) × 100. BW change was calculated based on individual body weight changes relative to day 0. Statistical significance relative to vehicle control or other test groups was established by one-way ANOVA followed by Fisher’s least significant difference test for multiple groups and unpaired t-test for two group comparisons (GraphPad Prism v9.0). Investigators were not blinded during data collection and analysis.

[2] = tested on: OVCAR3 xenografts; assay: Cell line-derived xenograft, tumour growth; details: Gem 20mg/kg QWx4 IP
Method: as §1, §2

[3] = Body weight change of tumour-bearing mice; details: Gem 20mg/kg QWx4 IP, individual mice
Method: as §2

SMILES: Nc1ccn([C@@H]2O[C@H](CO)[C@@H](O)C2(F)F)c(=O)n1 [Gem]
- Tumor growth of HCC1569 xenografts ([1]; time 0, individual animals): 105.749 and 117.204 and 102.711 and 148.478 and 128.24 and 85.4122 and 124.681
- HCC1569 tumor volume (mm3) ([1]; time 0, individual mice): 105.749 mm3 and 117.204 mm3 and 102.711 mm3 and 148.478 mm3 and 128.24 mm3 and 85.4122 mm3 and 124.681 mm3
- Tumor growth of HCC1569 xenografts ([1]; time 3, individual animals): 151.536 and 159.659 and 162.777 and 151.443 and 177.63 and 154.669 and 192.079
- HCC1569 tumor volume (mm3) ([1]; time 3, individual mice): 151.536 mm3 and 159.659 mm3 and 162.777 mm3 and 151.443 mm3 and 177.63 mm3 and 154.669 mm3 and 192.079 mm3
- Tumor growth of HCC1569 xenografts ([1]; time 7, individual animals): 138.854 and 145.293 and 143.642 and 108.998 and 199.13 and 137.034 and 160.487
- HCC1569 tumor volume (mm3) ([1]; time 7, individual mice): 138.854 mm3 and 145.293 mm3 and 143.642 mm3 and 108.998 mm3 and 199.13 mm3 and 137.034 mm3 and 160.487 mm3
- Tumor growth of HCC1569 xenografts ([1]; time 9, individual animals): 174.796 and 137.503 and 143.242 and 176.878 and 226.134 and 163.467 and 188.183
- HCC1569 tumor volume (mm3) ([1]; time 9, individual mice): 174.796 mm3 and 137.503 mm3 and 143.242 mm3 and 176.878 mm3 and 226.134 mm3 and 163.467 mm3 and 188.183 mm3
- Tumor growth of HCC1569 xenografts ([1]; time 11, individual animals): 223.015 and 184.936 and 195 and 179.883 and 241.724 and 153.608 and 171.36
- HCC1569 tumor volume (mm3) ([1]; time 11, individual mice): 223.015 mm3 and 184.936 mm3 and 195 mm3 and 179.883 mm3 and 241.724 mm3 and 153.608 mm3 and 171.36 mm3
- Tumor growth of HCC1569 xenografts ([1]; time 14, individual animals): 204.003 and 261.558 and 183.38 and 118.879 and 239.252 and 185.171 and 204.752
- HCC1569 tumor volume (mm3) ([1]; time 14, individual mice): 204.003 mm3 and 261.558 mm3 and 183.38 mm3 and 118.879 mm3 and 239.252 mm3 and 185.171 mm3 and 204.752 mm3
- Tumor growth of HCC1569 xenografts ([1]; time 16, individual animals): 195.461 and 216.259 and 164.879 and 153.977 and 196.654 and 193.17 and 190.906
- HCC1569 tumor volume (mm3) ([1]; time 16, individual mice): 195.461 mm3 and 216.259 mm3 and 164.879 mm3 and 153.977 mm3 and 196.654 mm3 and 193.17 mm3 and 190.906 mm3
- Tumor growth of HCC1569 xenografts ([1]; time 18, individual animals): 221.924 and 212.425 and 129.02 and 208.213 and 166.677 and 229.196 and 227.014
- HCC1569 tumor volume (mm3) ([1]; time 18, individual mice): 221.924 mm3 and 212.425 mm3 and 129.02 mm3 and 208.213 mm3 and 166.677 mm3 and 229.196 mm3 and 227.014 mm3
- Tumor growth of HCC1569 xenografts ([1]; time 21, individual animals): 185.067 and 156.685 and 149.724 and 161.993 and 145.441 and 216.395 and 247.024
- HCC1569 tumor volume (mm3) ([1]; time 21, individual mice): 185.067 mm3 and 156.685 mm3 and 149.724 mm3 and 161.993 mm3 and 145.441 mm3 and 216.395 mm3 and 247.024 mm3
- Tumor growth of HCC1569 xenografts ([1]; time 23, individual animals): 177.467 and 131.768 and 165.163 and 189.467 and 130.853 and 205.401 and 303.013
- HCC1569 tumor volume (mm3) ([1]; time 23, individual mice): 177.467 mm3 and 131.768 mm3 and 165.163 mm3 and 189.467 mm3 and 130.853 mm3 and 205.401 mm3 and 303.013 mm3
- Tumor growth of OVCAR3 xenografts ([2]; time 0, individual animals): 127.251 and 90.8608 and 112.694 and 96.336 and 125.032 and 141.631 and 118.987
- Tumor growth of OVCAR3 xenografts ([2]; time 3, individual animals): 203.437 and 160.884 and 245.447 and 183.946 and 210.941 and 179.854 and 163.096
- Tumor growth of OVCAR3 xenografts ([2]; time 7, individual animals): 169.802 and 183.034 and 268.576 and 188.758 and 168.18 and 112.682 and 213.401
- Tumor growth of OVCAR3 xenografts ([2]; time 9, individual animals): 250.578 and 145.319 and 296.396 and 174.266 and 208.875 and 111.675 and 222.442
- Tumor growth of OVCAR3 xenografts ([2]; time 11, individual animals): 150.312 and 146.391 and 223.166 and 200.774 and 206.854 and 146.012 and 157.334
- Tumor growth of OVCAR3 xenografts ([2]; time 14, individual animals): 213.268 and 123.935 and 200.751 and 155.809 and 196.515 and 140.875 and 141.404
- Tumor growth of OVCAR3 xenografts ([2]; time 16, individual animals): 237.66 and 135.959 and 229.1 and 226.618 and 235.663 and 103.266 and 203.735
- Tumor growth of OVCAR3 xenografts ([2]; time 18, individual animals): 251.017 and 162.673 and 318.873 and 214.059 and 306.209 and 174.974 and 210.077
- Tumor growth of OVCAR3 xenografts ([2]; time 21, individual animals): 247.655 and 170.92 and 321.104 and 222.893 and 230.514 and 99.1867 and 166.154
- Tumor growth of OVCAR3 xenografts ([2]; time 23, individual animals): 217.609 and 142.992 and 287.288 and 218.481 and 211.021 and 149.048 and 110.272
- Tumor growth of OVCAR3 xenografts ([2]; time 25, individual animals): 172.222 and 104.59 and 228.551 and 206.723 and 216.753 and 107.406 and 123.877
- Tumor growth of OVCAR3 xenografts ([2]; time 28, individual animals): 184.75 and 98.3676 and 117.318 and 112.167 and 170.273 and 123.013 and 138.241
- Tumor growth of OVCAR3 xenografts ([2]; time 31, individual animals): 217.819 and 125.965 and 185.385 and 170.168 and 195 and 193.032 and 178.082
- Tumor growth of OVCAR3 xenografts ([2]; time 35, individual animals): 357.498 and 160.976 and 228.46 and 273.584 and 249.247 and 117.028 and 138.719
- Change in body weight (%) HCC1569 ([3]; time 0): 0%
- Change in body weight (%) HCC1569 ([3]; time 3): 2.186% and 4.278% and -2.094% and 2.073% and 1.538% and -0.9709% and -1.493%
- Change in body weight (%) HCC1569 ([3]; time 7): 3.279% and 3.743% and 1.047% and 5.181% and 1.026% and 0% and 1.99%
- Change in body weight (%) HCC1569 ([3]; time 9): 0.5464% and 3.209% and 0.5236% and 3.109% and 2.5641% and 2.427% and 1.99%
- Change in body weight (%) HCC1569 ([3]; time 11): 3.279% and 2.6738% and 1.571% and 2.591% and 0.5128% and 1.456% and 3.483%
- Change in body weight (%) HCC1569 ([3]; time 14): 7.104% and 10.1604% and 2.6178% and 8.808% and 4.103% and 2.913% and 2.985%
- Change in body weight (%) HCC1569 ([3]; time 16): 9.29% and 6.417% and 2.6178% and 5.181% and 3.077% and 4.854% and 4.975%
- Change in body weight (%) HCC1569 ([3]; time 18): 8.197% and 8.556% and 3.141% and 6.218% and 3.59% and 6.796% and 0.995%
- Change in body weight (%) HCC1569 ([3]; time 21): 12.5683% and 10.6952% and 5.759% and 9.326% and 8.205% and 11.6505% and 10.4478%
- Change in body weight (%) HCC1569 ([3]; time 23): 13.1148% and 9.626% and 4.712% and 9.845% and 6.154% and 6.311% and 3.9801%
- Change in body weight (%) OVCAR3 ([3]; day 0): 0%
- Change in body weight (%) OVCAR3 ([3]; day 3): 1.389% and -3.111% and 1.796% and -4.018% and -0.4608% and -5.195% and 2.427%
- Change in body weight (%) OVCAR3 ([3]; day 7): 4.63% and 0.4444% and 0.5988% and -2.232% and -0.9217% and 0% and 3.8835%
- Change in body weight (%) OVCAR3 ([3]; day 9): 4.167% and -2.667% and 0% and -0.8929% and -3.226% and -2.1645% and 3.8835%
- Change in body weight (%) OVCAR3 ([3]; day 11): 0% (2×) and -3.556% and 1.796% and -1.786% and -3.687% and 7.767%
- Change in body weight (%) OVCAR3 ([3]; day 14): 2.778% and -1.333% and 0.5988% and -0.8929% and 0% and 0.8658% and 9.709%
- Change in body weight (%) OVCAR3 ([3]; day 16): 3.7037% and -2.667% and -0.5988% and -1.786% and -4.147% and 0.4329% and 7.282%
- Change in body weight (%) OVCAR3 ([3]; day 18): 4.63% and -2.222% and 0.5988% and -0.4464% and 1.843% and -1.7316% and 4.854%
- Change in body weight (%) OVCAR3 ([3]; day 21): 8.7963% and 1.778% and 1.796% and -0.4464% and 2.765% and 0% and 8.252%

Reference: publication PMC9046089, “CCNE1 amplification is synthetic lethal with PKMYT1 kinase inhibition” (Nature, 2022)
